Laboratory results: patent US20260334439A1, “BCAT2 INHIBITORS” (Agios Pharmaceuticals, Inc., priority 2023, published 2026)

Columns and labels:
BCAT2 [1] = target: T1, BCAT2 (Homo sapiens, UniProt O15382); assay: BCAT2 in vitro enzyme inhibition assay (hBCAT2, glutamate dehydrogenase/diaphorase/resazurin coupled fluorescence read); format: biochemical; details: hBCAT2, 1 h preincubation at 25° C., one hour reaction; average where tested multiple times
T1 sequence (O15382 28-392): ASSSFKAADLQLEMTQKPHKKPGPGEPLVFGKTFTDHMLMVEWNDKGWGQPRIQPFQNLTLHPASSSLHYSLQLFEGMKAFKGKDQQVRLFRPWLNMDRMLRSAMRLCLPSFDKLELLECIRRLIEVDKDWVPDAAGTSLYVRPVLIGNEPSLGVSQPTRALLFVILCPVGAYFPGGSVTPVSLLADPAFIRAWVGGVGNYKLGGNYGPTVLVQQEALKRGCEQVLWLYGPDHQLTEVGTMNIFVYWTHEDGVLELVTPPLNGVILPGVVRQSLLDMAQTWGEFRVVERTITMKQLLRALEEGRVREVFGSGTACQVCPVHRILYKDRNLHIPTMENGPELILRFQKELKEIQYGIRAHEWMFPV
Procedure, shortened: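 hBCAT2 (0.33 μg/mL in mix) preincubated 1 h at 25 °C with compound (top 100 μM, 3-fold, 10 points) in Tris pH 8.0/NaCl/BSA; substrate mix added (L-leucine, α-ketoglutarate, GDH, NAD, diaphorase, resazurin), quenched with SDS after 1 h, fluorescence Ex 540/Em 590; duplicates, repeat tests averaged.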

BCAT2 [2] = target: T1, BCAT2; assay: BCAT2 cell inhibition using engineered A549 cells (MUT KO, BCAT1 KO; 13C6-KMV formation by LC-MS/MS); format: cell-based; design: expressed endogenous BCAT2; endogenous in cells; host or cells: A549 cells, MUT knockout and BCAT1 knockout
Procedure, shortened: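 Medium 13C6-KMV formation is read by LC-MS/MS after PFBHA derivatization with d8-KMV internal standard. Cells are CRISPR MUT/BCAT1 double-knockout A549 expressing endogenous BCAT2, given compound 15 min before labelled isoleucine (800 uM, added 1:1) for 24 h. CTG viability run in parallel; replicates averaged.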

[3] = read-out: BCAT2 Cell Inhibition (IC50), engineered A549 cells, 24 hours, 13C6-KMV in media, average where tested multiple times

SMILES | IC50 (BCAT2 [1]) [µM] | IC50 (BCAT2 [2]) [µM] | IC50 (BCAT2 [2]; [3]) [µM]
O=C1c2cc(Cl)ccc2OCN1[C@H]1CCC[C@@H](n2c(-c3ccccc3F)nc3cnc(-c4nc[nH]n4)cc32)[C@@H]1O [Example 213, 6-chloro-3-((1S,2S,3R)-3-(2-(2-fluorophenyl)-6-(1H-1,2,4-triazol-3-yl)-1H-imidazo[4,5-c]pyridin-1-yl)-2-hydroxycyclohexyl)-2,3-dihydro-4H-benzo[e][1,3]oxazin-4-one] | < 0.1 | < 0.1 | –
O=C1c2cc(Cl)ccc2OCN1[C@H]1CCC[C@@H](n2c(-c3ccccc3F)nc3cnc(-n4nccn4)cc32)[C@@H]1O [Example 214, 6-chloro-3-((1S,2S,3R)-3-(2-(2-fluorophenyl)-6-(2H-1,2,3-triazol-2-yl)-1H-imidazo[4,5-c]pyridin-1-yl)-2-hydroxycyclohexyl)-2,3-dihydro-4H-benzo[e][1,3]oxazin-4-one] | < 0.1 | < 0.1 | –
O=C1c2cc(Cl)ccc2OCN1[C@H]1CCC[C@@H](n2c(-c3ccccc3F)nc3cnc(-c4ncco4)cc32)[C@@H]1O [Example 215, 6-chloro-3-((1S,2S,3R)-3-(2-(2-fluorophenyl)-6-(oxazol-2-yl)-1H-imidazo[4,5-c]pyridin-1-yl)-2-hydroxycyclohexyl)-2,3-dihydro-4H-benzo[e][1,3]oxazin-4-one] | < 0.1 | < 0.1 | –
COc1ccc(Cl)cc1C(=O)N[C@H]1CCC[C@@H](n2c(-c3ccccc3F)nc3ccc(-c4nc[nH]n4)cc32)[C@@H]1O [Example 217, 5-chloro-N-((1S,2R,3R)-3-(2-(2-fluorophenyl)-6-(1H-1,2,4-triazol-3-yl)-1H-benzo[d]imidazol-1-yl)-2-hydroxycyclo-hexyl)-2-methoxybenzamide] | < 0.1 | – | > 1
O=C(N[C@H]1CCC[C@@H](n2c(-c3ccccc3F)nc3ccc(-c4nc[nH]n4)cc32)[C@@H]1O)c1cc(Cl)ccn1 [Example 218, 4-chloro-N-((1S,2R,3R)-3-(2-(2-fluorophenyl)-6-(1H-1,2,4-triazol-3-yl)-1H-benzo[d]imid-azol-1-yl)-2-hydroxycyclohex-yl)picolinamide] | < 0.1 | 0.1 to 0.5 | –
CC(C)Cc1nc2ccc(-c3ncccn3)cc2n1[C@@H]1CCC[C@H](NC(=O)c2cc(Cl)ccn2)[C@H]1O [Example 219, 4-chloro-N-((1S,2R,3R)-2-hydroxy-3-(2-isobutyl-6-(pyrim-idin-2-yl)-1H-benzo[d]imidazol-1-yl)cyclohexyl)picolinamide] | < 0.1 | 0.1 to 0.5 | –
CO[C@H]1C[C@H](NC(=O)c2cc(F)ccn2)C[C@H](n2c(-c3ccccc3F)nc3ccc(-c4nc[nH]n4)cc32)C1 [Example 221, 4-fluoro-N-((1S,3R,5R)-3-(2-(2-fluorophenyl)-6-(1H-1,2,4-triazol-3-yl)-1H-benzo[d]imid-azol-1-yl)-5-methoxycyclohex-yl)picolinamide] | < 0.1 | – | > 1
O=C(N[C@H]1CCC[C@@H](n2c(-c3ccccc3F)nc3ccc(-c4nc[nH]n4)cc32)C1)c1cc(F)ccn1 [Example 226, 4-fluoro-N-((1S,3R)-3-(2-(2-fluorophenyl)-6-(1H-1,2,4-triazol-3-yl)-1H-benzo[d]imid-azol-1-yl)cyclohexyl)picolin-amide] | < 0.1 | 0.1 to 0.5 | –
O=C(N[C@H]1CCC[C@@H](n2c(-c3c(O)cccc3F)nc3ccc(-c4nc[nH]n4)cc32)C1)c1cc(Cl)ccn1 [Example 227, 4-chloro-N-((1S,3R)-3-(2-(2-fluoro-6-hydroxyphenyl)-6-(1H-1,2,4-triazol-3-yl)-1H-benzo[d]imidazol-1-l)cyclohexyl)picolin-amide] | < 0.1 | 0.1 to 0.5 | –
O=C(N[C@H]1CCC[C@@H](n2c(-c3ccccc3F)nc3ccc(-c4nc[nH]n4)c(F)c32)C1)c1cc(Cl)ccn1 [Example 230, 4-chloro-N-((1S,3R)-3-(7-fluoro-2-(2-fluorophenyl)-6-(1H-1,2,4-triazol-3-yl)-1H-benzo[d]imidazol-1-yl)cyclohexyl)picolinamide] | < 0.1 | < 0.1 | –
N#Cc1ccccc1-c1nc2ccc(-c3ncccn3)cc2n1[C@@H]1CCC[C@H](N2Cc3ccc(F)cc3C2=O)C1 [Example 239, 2-(1-((1R,3S)-3-(6-fluoro-1-oxoisoindolin-2-yl)cyclohexyl)-6-(pyrimidin-2-yl)-1H-benzo[d]imidazol-2-yl)benzonitrile] | < 0.1 | < 0.1 | –
CO[C@H]1C[C@H](N2Cc3ccc(F)cc3C2=O)C[C@H](n2c(-c3ccccc3OCCO)nc3ccc(-c4ncco4)cc32)C1 [Example 241, 6-fluoro-2-((1R,3S,5R)-3-(2-(2-(2-hydroxyethoxy)phenyl)-6-(oxazol-2-yl)-1H-benzo[d]imid-azol-1-yl)-5-methoxycyclohex-yl)isoindolin-1-one] | < 0.1 | 0.1 to 0.5 | –
CN1C[C@H](N2Cc3ccc(F)cc3C2=O)C[C@H](n2c(-c3ccccc3OCCO)nc3ccc(-c4ncccn4)cc32)C1 [Example 243, 6-fluoro-2-((3R,5S)-5-(2-(2-(2-hydroxyethoxy)phenyl)-6-(pyrimidin-2-yl)-1H-benzo[d]imidazol-1-yl)-1-methylpiper-idin-3-yl)isoindolin-1-one] | < 0.1 | 0.1 to 0.5 | –
O=C(N[C@H]1CCC[C@@H](n2c(-c3ccccc3OC(F)F)nc3cnc(-c4nc[nH]n4)cc32)C1)c1cc(F)ccn1 [compound 30] | < 0.1 | < 0.1 | –
O=C(N[C@H]1CCC[C@@H](n2c(-c3ccccc3OC(F)F)nc3cnc(-c4nc[nH]n4)cc32)C1)c1cc(Cl)ccc1O [compound 69] | < 0.1 | < 0.1 | –
O=C(N[C@H]1CCC[C@@H](n2c(-c3ccccc3OC(F)F)nc3cnc(-c4nc[nH]n4)cc32)C1)c1cc(Cl)ccc1OCCO [compound 73] | < 0.1 | < 0.1 | –
O=C(N[C@H]1CCC[C@@H](n2c(-c3ccccc3F)nc3cnc(-c4nc[nH]n4)cc32)C1)c1cc(C(F)F)ccn1 [compound 100] | < 0.1 | < 0.1 | –
O=C(N[C@H]1CCC[C@@H](n2c(-c3ccccc3F)nc3cnc(-c4ncn(C(F)F)n4)cc32)[C@@H]1O)c1cc(Cl)ccn1 [compound 118] | < 0.1 | < 0.1 | –
CN1C[C@H](NC(=O)c2cc(F)ccn2)C[C@H](n2c(-c3ccccc3OC(F)F)nc3cnc(-c4nc[nH]n4)cc32)C1 [compound 139] | < 0.1 | < 0.1 | –
CN1C[C@H](NC(=O)c2cc(Cl)ccn2)C[C@H](n2c(-c3ccccc3OC(F)F)nc3cnc(-c4nc[nH]n4)cc32)C1 [compound 141] | < 0.1 | < 0.1 | –
O=C1c2cc(F)ccc2CN1[C@H]1CCC[C@@H](n2c(-c3ccccc3OC(F)F)nc3cnc(-c4nc[nH]n4)cc32)C1 [compound 180] | < 0.1 | < 0.1 | –
O=C1c2cc(F)ccc2CN1[C@H]1CCC[C@@H](n2c(-c3ccccc3OC(F)F)nc3cnc(-c4nc[nH]n4)cc32)[C@@H]1O [compound 188] | < 0.1 | 0.1 to 0.5 | –
O=C1c2cc(F)ccc2CN1[C@H]1CCC[C@@H](n2c(-c3c(F)cccc3OC(F)F)nc3cnc(-c4nc[nH]n4)cc32)[C@@H]1O [compound 189] | < 0.1 | < 0.1 | –
O=C1c2cc(Cl)ccc2OCN1[C@H]1CCC[C@@H](n2c(-c3ccccc3OC(F)F)nc3cnc(-c4nc[nH]n4)cc32)C1 [compound 205] | < 0.1 | < 0.1 | –
O=C1c2cc(F)ccc2OCN1[C@H]1CCC[C@@H](n2c(-c3ccccc3OC(F)F)nc3cnc(-c4nc[nH]n4)cc32)C1 [compound 211] | < 0.1 | < 0.1 | –
O=C1c2cc(F)ccc2CN1[C@H]1CCC[C@@H](n2c(-c3ccccc3OC(F)F)nc3ccc(-c4nc[nH]n4)c(F)c32)C1 [compound 238] | < 0.1 | < 0.1 | –
O=C1c2cc(F)ccc2CN1[C@H]1CCC[C@@H](n2c(-c3c(F)cccc3OC(F)F)nc3ccc(-c4nc[nH]n4)cc32)[C@@H]1O [compound 240] | < 0.1 | 0.1 to 0.5 | –
